What was measured:
Format in all cases: in vivo
[1] = system: bermudagrass (Cynodon dactylon); test: Test B pre-/postemergence plant response; details: for Bermudagrass plant response rating: 8 g ai/ha
How it was run: (§1)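 Seeds were sown and sprayed preemergence, while plants at 2 to 18 cm (1- to 4-leaf stage) got postemergence sprays. Compounds were formulated in a non-phytotoxic solvent mixture with surfactant. After 13 to 15 days in a greenhouse, injury was rated visually against untreated controls, 0 (no effect) to 100 (complete control).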

[2] = system: common (oilseed) sunflower (Helianthus annuus); test: Test B pre-/postemergence plant response; details: Preemergence
How it was run: as §1

[3] = system: goosegrass (Eleusine indica); test: Test B pre-/postemergence plant response; details: for Goosegrass plant response rating: 8 g ai/ha
How it was run: as §1

[4] = system: giant foxtail (Setaria faberii); test: Test B pre-/postemergence plant response; details: for Foxtail, Giant plant response rating: 8 g ai/ha
How it was run: as §1

[5] = system: pigweed (Amaranthus retroflexus); test: Test B pre-/postemergence plant response; details: for Pigweed plant response rating: 8 g ai/ha
How it was run: as §1

[6] = system: velvetleaf (Abutilon theophrasti); test: Test B pre-/postemergence plant response; details: for Velvetleaf plant response rating: 8 g ai/ha
How it was run: as §1

[7] = system: johnsongrass (Sorghum halepense); test: Test B pre-/postemergence plant response; details: for Johnsongrass plant response rating: 8 g ai/ha
How it was run: as §1

[8] = system: downy bromegrass (Bromus tectorum); test: Test B pre-/postemergence plant response; details: for Bromegrass, Downy plant response rating: 8 g ai/ha
How it was run: as §1

[9] = system: wheat (Triticum aestivum); test: Test B pre-/postemergence plant response; details: for Wheat plant response rating: 8 g ai/ha
How it was run: as §1

[10] = system: blackgrass (Alopecurus myosuroides); test: Test B pre-/postemergence plant response; details: for Blackgrass plant response rating: 8 g ai/ha
How it was run: as §1

soybean (Glycine max) = test: Test B pre-/postemergence plant response; details: for Soybean plant response rating: 8 g ai/ha
How it was run: as §1

[11] = system: giant foxtail (Setaria faberi); test: Test A pre-/postemergence plant response
How it was run: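 Seeds were planted in blended loam soil and sand, then treated preemergence by directed soil spray. At that time, emerged plants (one- to two-leaf, 2–10 cm) received postemergence applications of the same surfactant-containing formulation. Injury was assessed visually on a 0–100 scale after approximately 10 days.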

[12] = Postemergence, 16 g ai/ha, scale 0 to 100
[13] = Postemergence, 31 g ai/ha, scale 0 to 100, 0 no effect, 100 complete control
[14] = Postemergence, 62 g ai/ha, scale 0 to 100, 0 no effect, 100 complete control
[15] = Preemergence, 16 g ai/ha, scale 0 to 100 (0 no effect, 100 complete control)
[16] = Preemergence, 31 g ai/ha, 0 to 100 scale, 0 no effect, 100 complete control
[17] = Preemergence, 62 g ai/ha, scale 0 to 100

SMILES: Cc1cc(-c2ccc(Cl)cc2)nn1-c1c(OC(=O)C(C)C)cnn(C)c1=O [Compound 34]
- Bermudagrass plant response rating ([1]; postemergence, 0-100 scale): 65
- Plant response rating, Bermudagrass [1, 12]: 100
- Plant response rating, Bermudagrass [1, 13]: 100
- Plant response rating, Bermudagrass [1, 14]: 100
- Bermudagrass plant response rating ([1]; Preemergence, scale 0 to 100 (0 no effect, 100 complete control)): 50
- Plant response rating, Bermudagrass [1, 15]: 98
- Plant response rating, Bermudagrass [1, 16]: 98
- Plant response rating, Bermudagrass [1, 17]: 100
- Plant response rating, Sunflower ([2]; 16 g ai/ha, scale 0 to 100 (0 no effect, 100 complete control)): 0
- Plant response rating, Sunflower ([2]; 31 g ai/ha, 0 to 100 scale, 0 no effect, 100 complete control): 0
- Plant response rating, Sunflower ([2]; 62 g ai/ha, scale 0 to 100): 0
- Sunflower plant response rating ([2]; 8 g ai/ha, scale 0 to 100): 0
- Goosegrass plant response rating ([3]; postemergence, 0-100 scale): 50
- Plant response rating, Goosegrass [3, 12]: 55
- Plant response rating, Goosegrass [3, 13]: 70
- Plant response rating, Goosegrass [3, 14]: 80
- Plant response rating, Goosegrass [3, 15]: 85
- Plant response rating, Goosegrass [3, 16]: 98
- Plant response rating, Goosegrass [3, 17]: 100
- Goosegrass plant response rating ([3]; Preemergence, scale 0 to 100): 55
- Foxtail, Giant plant response rating ([4]; postemergence, 0-100 scale): 80
- Plant response rating, Foxtail, Giant [4, 12]: 90
- Plant response rating, Foxtail, Giant [4, 13]: 100
- Plant response rating, Foxtail, Giant [4, 14]: 100
- Plant response rating, Foxtail, Giant [4, 15]: 100
- Plant response rating, Foxtail, Giant [4, 16]: 100
- Plant response rating, Foxtail, Giant [4, 17]: 100
- Foxtail, Giant plant response rating ([4]; Preemergence, scale 0 to 100): 98
- Pigweed plant response rating ([5]; postemergence, 0-100 scale): 0
- Plant response rating, Pigweed [5, 12]: 0
- Plant response rating, Pigweed [5, 13]: 0
- Plant response rating, Pigweed [5, 14]: 0
- Plant response rating, Pigweed [5, 15]: 0
- Plant response rating, Pigweed [5, 16]: 0
- Plant response rating, Pigweed [5, 17]: 0
- Pigweed plant response rating ([5]; Preemergence, scale 0 to 100): 0
- Velvetleaf plant response rating ([6]; postemergence, 0-100 scale): 0
- Plant response rating, Velvetleaf [6, 12]: 0
- Plant response rating, Velvetleaf [6, 14]: 0
- Plant response rating, Velvetleaf [6, 15]: 0
- Plant response rating, Velvetleaf [6, 16]: 0
- Plant response rating, Velvetleaf [6, 17]: 0
- Velvetleaf plant response rating ([6]; Preemergence, scale 0 to 100): 0
- Johnsongrass plant response rating ([7]; postemergence, 0-100 scale): 75
- Plant response rating, Johnsongrass [7, 12]: 95
- Plant response rating, Johnsongrass [7, 13]: 98
- Plant response rating, Johnsongrass [7, 14]: 100
- Plant response rating, Johnsongrass [7, 15]: 95
- Plant response rating, Johnsongrass [7, 16]: 100
- Plant response rating, Johnsongrass [7, 17]: 100
- Johnsongrass plant response rating ([7]; Preemergence, scale 0 to 100): 65
- Bromegrass, Downy plant response rating ([8]; postemergence, 0-100 scale): 20
- Plant response rating, Bromegrass, Downy [8, 12]: 50
- Plant response rating, Bromegrass, Downy [8, 13]: 50
- Plant response rating, Bromegrass, Downy [8, 14]: 80
- Plant response rating, Bromegrass, Downy [8, 15]: 55
- Plant response rating, Bromegrass, Downy [8, 16]: 55
- Plant response rating, Bromegrass, Downy [8, 17]: 80
- Bromegrass, Downy plant response rating ([8]; Preemergence, scale 0 to 100): 0
- Wheat plant response rating ([9]; postemergence, 0-100 scale): 0
- Plant response rating, Wheat [9, 12]: 40
- Plant response rating, Wheat [9, 14]: 90
- Plant response rating, Wheat [9, 15]: 0
- Plant response rating, Wheat [9, 16]: 30
- Plant response rating, Wheat [9, 17]: 40
- Wheat plant response rating ([9]; Preemergence, scale 0 to 100): 0
- Blackgrass plant response rating ([10]; postemergence, 0-100 scale): 0
- Plant response rating, Blackgrass [10, 12]: 75
- Plant response rating, Blackgrass [10, 13]: 75
- Plant response rating, Blackgrass [10, 14]: 90
- Plant response rating, Blackgrass [10, 15]: 85
- Plant response rating, Blackgrass [10, 16]: 100
- Plant response rating, Blackgrass [10, 17]: 100
- Blackgrass plant response rating ([10]; Preemergence, scale 0 to 100): 0
- Soybean plant response rating (soybean (Glycine max); postemergence, 0-100 scale): 0
- Plant response rating, Soybean (soybean (Glycine max); [12]): 0
- Plant response rating, Soybean (soybean (Glycine max); [14]): 0
- Plant response rating, Soybean (soybean (Glycine max); [15]): 0
- Plant response rating, Soybean (soybean (Glycine max); [16]): 0
- Plant response rating, Soybean (soybean (Glycine max); [17]): 0
- Soybean plant response rating (soybean (Glycine max); Preemergence, scale 0 to 100): 0
- Plant response rating, Foxtail, Giant ([11]; Postemergence, 31 g ai/ha, 0 to 100 scale (0 no effect, 100 complete control)): 90
- Plant response rating, Foxtail, Giant ([11]; Postemergence, 125 g ai/ha, 0 to 100 scale, 0 no effect, 100 complete control): 100
- Plant response rating, Foxtail, Giant ([11]; Preemergence, 31 g ai/ha, 0 to 100 scale, 0 is no effect, 100 is complete control): 100
- Plant response rating, Foxtail, Giant ([11]; Preemergence, 125 g ai/ha, 0 to 100 scale (0 no effect, 100 complete control)): 100
